“And” between values parts separate entries of the source, which are not always exact repeats. Equal values may be shown once. Read-outs that look alike come from different tables or passages of the source.
What was measured:
[1] = test system: KATO III; assay: Cell viability assay (ATPlite); format: cell-based, human; conditions: KATO III cell line, 72 hours incubation
Experimental: (§1) Intracellular ATP content was used as an indirect readout of cell number using the ATPlite 1Step bioluminescence assay (Revvity, Groningen, the Netherlands). Cells were seeded in 384-well plates at an optimized density to ensure unrestricted growth and maximal signal at the end of the experiment. After 24 hours of incubation, the starting cell number was determined by adding ATPlite to each well of a control plate and recording luminescence on an Envision multimode reader (Revvity, Waltham, MA, USA) ([4]). Compounds were diluted in DMSO in √10-fold steps from 10 mmol/L stocks to obtain 9-point dilution series. After further 31.6-fold dilution in 20 mmol/L HEPES (pH 7.4), the dilution series were added in duplicate to the cells in the 384-well plates to determine the effect of the compounds on cell viability. Vehicle-treated controls were included to determine maximal cell proliferation. The final DMSO concentration was 0.4% (v/v) in all wells. After incubation for an additional 72 hours, the ATP content was measured in each well using ATPlite. The luminescent signal in inhibitor-treated wells was normalized to vehicle-treated control wells to determine the percentage viability at each concentration. Cell doublings were determined by relating the cell number of vehicle-treated controls to the starting cell number for each cell line. The viability assay of a cell line was repeated when the cell doubling deviated > 2-fold from the historic doubling as determined by multiple independent experiments. The quality of the complete assay was determined by a parallel test with doxorubicin on two cell lines. IC50 values were calculated by fitting a four-parameter logistic model to the percentage viability values using IDBS XLfit5 (IDBS, Guildford, United Kingdom). All curves were visually inspected and submitted to an F-test as implemented in IDBS XLfit5. Curves with an F-value above 1.5 were invalidated and IC50 values were maximized at the highest concentration.

[2] = test system: KG-1; assay: Cell viability assay (ATPlite); format: cell-based, human; conditions: KG-1 cell line, 72 hours incubation
Experimental: as §1

[3] = test system: 5637; assay: Cell viability assay (ATPlite); format: cell-based; conditions: Homo sapiens; 5637 cell line, 72 hours incubation
Experimental: as §1

[4] = test system: 769-P; assay: Cell viability assay (ATPlite); format: cell-based; conditions: Homo sapiens; 769-P cell line, 72 hours incubation
Experimental: as §1

[5] = test system: A-704; assay: Cell viability assay (ATPlite); format: cell-based; conditions: Homo sapiens, A704; A-704 cell line, 72 hours incubation
Experimental: as §1

[6] = test system: AP-1060; assay: Cell viability assay (ATPlite); format: cell-based; conditions: Homo sapiens; AP-1060 cell line, 72 hours incubation
Experimental: as §1

[7] = test system: AU565; assay: Cell viability assay (ATPlite); format: cell-based; conditions: Homo sapiens; AU565 cell line, 72 hours incubation
Experimental: as §1

[8] = test system: CAL-27; assay: Cell viability assay (ATPlite); format: cell-based; conditions: Homo sapiens; CAL-27 cell line, 72 hours incubation
Experimental: as §1

[9] = test system: DB; assay: Cell viability assay (ATPlite); format: cell-based; conditions: Homo sapiens; DB cell line, 72 hours incubation
Experimental: as §1

[10] = test system: DU4475; assay: Cell viability assay (ATPlite); format: cell-based; conditions: Homo sapiens, DU-4475; DU4475 cell line, 72 hours incubation
Experimental: as §1

[11] = test system: DoHH2; assay: Cell viability assay (ATPlite); format: cell-based; conditions: Homo sapiens, DOHH-2; DoHH2 cell line, 72 hours incubation
Experimental: as §1

[12] = test system: HEC-1-B; assay: Cell viability assay (ATPlite); format: cell-based; conditions: Homo sapiens; HEC-1-B cell line, 72 hours incubation
Experimental: as §1

[13] = test system: HEC-1; assay: Cell viability assay (ATPlite); format: cell-based; conditions: Homo sapiens; HEC-1 cell line, 72 hours incubation
Experimental: as §1

[14] = test system: HEC-6; assay: Cell viability assay (ATPlite); format: cell-based; conditions: Homo sapiens; HEC-6 cell line, 72 hours incubation
Experimental: as §1

[15] = test system: Hep-G2; assay: Cell viability assay (ATPlite); format: cell-based; conditions: Homo sapiens, HepG2; Hep-G2 cell line, 72 hours incubation
Experimental: as §1

[16] = test system: LS174T; assay: Cell viability assay (ATPlite); format: cell-based; conditions: Homo sapiens; LS174T cell line, 72 hours incubation
Experimental: as §1

[17] = test system: MM1.S; assay: Cell viability assay (ATPlite); format: cell-based; conditions: Homo sapiens; MM1.S cell line, 72 hours incubation
Experimental: as §1

[18] = test system: NCI-H460; assay: Cell viability assay (ATPlite); format: cell-based; conditions: Homo sapiens; NCI-H460 cell line, 72 hours incubation
Experimental: as §1

[19] = test system: NOMO-1; assay: Cell viability assay (ATPlite); format: cell-based; conditions: Homo sapiens; NOMO-1 cell line, 72 hours incubation
Experimental: as §1

[20] = test system: RS4;11; assay: Cell viability assay (ATPlite); format: cell-based; conditions: Homo sapiens; RS4;11 cell line, 72 hours incubation
Experimental: as §1

[21] = test system: SK-N-AS; assay: Cell viability assay (ATPlite); format: cell-based; conditions: Homo sapiens; SK-N-AS cell line, 72 hours incubation
Experimental: as §1

[22] = test system: SR; assay: Cell viability assay (ATPlite); format: cell-based; conditions: Homo sapiens; SR cell line, 72 hours incubation
Experimental: as §1

[23] = test system: T98G; assay: Cell viability assay (ATPlite); format: cell-based; conditions: Homo sapiens; T98G cell line, 72 hours incubation
Experimental: as §1

[24] = test system: TCCSUP; assay: Cell viability assay (ATPlite); format: cell-based; conditions: Homo sapiens, TCC-SUP; TCCSUP cell line, 72 hours incubation
Experimental: as §1

[25] = target: T1, MEK1 (Homo sapiens, UniProt Q02750); assay: Kinase enzyme activity assay (ELISA, in-house); format: biochemical
T1 construct: purchased Carna Biosciences, Inc. 07–41
T1 sequence (Q02750 whole entry): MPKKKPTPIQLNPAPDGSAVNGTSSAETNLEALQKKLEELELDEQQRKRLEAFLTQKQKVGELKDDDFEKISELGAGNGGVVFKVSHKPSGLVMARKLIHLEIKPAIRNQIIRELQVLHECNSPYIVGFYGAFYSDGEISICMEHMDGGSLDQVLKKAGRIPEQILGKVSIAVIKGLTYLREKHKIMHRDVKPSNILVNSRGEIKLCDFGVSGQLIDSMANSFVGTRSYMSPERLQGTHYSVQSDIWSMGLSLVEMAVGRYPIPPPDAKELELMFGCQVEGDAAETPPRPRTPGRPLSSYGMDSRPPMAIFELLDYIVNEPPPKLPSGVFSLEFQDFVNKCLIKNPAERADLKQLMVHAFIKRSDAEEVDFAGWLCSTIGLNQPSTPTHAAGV

[26] = target: biotinylated, inactive MEK1 (Homo sapiens, UniProt Q02750); assay: Surface plasmon resonance binding (Biacore 1S+); conditions: SPR
Sequence of biotinylated, inactive MEK1 (Q02750 whole entry): as above

[27] = target: activated B-RAF (Homo sapiens, UniProt P15056); assay: Surface plasmon resonance binding (Biacore 1S+)
Sequence of activated B-RAF (P15056 whole entry): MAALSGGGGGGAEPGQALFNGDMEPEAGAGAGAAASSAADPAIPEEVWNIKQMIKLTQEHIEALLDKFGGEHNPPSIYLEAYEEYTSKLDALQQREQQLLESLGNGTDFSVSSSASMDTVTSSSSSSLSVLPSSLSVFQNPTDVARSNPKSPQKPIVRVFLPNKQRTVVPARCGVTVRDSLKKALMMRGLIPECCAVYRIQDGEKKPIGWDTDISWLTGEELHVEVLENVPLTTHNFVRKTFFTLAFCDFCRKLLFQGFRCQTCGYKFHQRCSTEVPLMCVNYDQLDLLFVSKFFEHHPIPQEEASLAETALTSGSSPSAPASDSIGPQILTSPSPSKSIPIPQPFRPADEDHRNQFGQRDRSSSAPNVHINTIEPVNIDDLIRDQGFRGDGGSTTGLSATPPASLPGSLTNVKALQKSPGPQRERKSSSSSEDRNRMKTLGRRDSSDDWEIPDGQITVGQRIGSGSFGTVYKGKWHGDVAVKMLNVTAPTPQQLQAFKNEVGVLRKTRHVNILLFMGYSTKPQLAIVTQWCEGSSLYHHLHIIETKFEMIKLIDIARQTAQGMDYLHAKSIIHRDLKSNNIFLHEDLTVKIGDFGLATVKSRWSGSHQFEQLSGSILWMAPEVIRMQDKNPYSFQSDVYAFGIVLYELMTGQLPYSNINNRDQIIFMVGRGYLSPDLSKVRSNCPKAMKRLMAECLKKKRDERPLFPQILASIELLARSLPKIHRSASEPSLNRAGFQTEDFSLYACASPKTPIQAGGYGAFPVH

[28] = target: B-RAF [V600E] (Homo sapiens, UniProt P15056, V600E); assay: Kinase enzyme activity assay at 1 mmol/L ATP (Carna)
Sequence of B-RAF [V600E] (P15056 whole entry V600E): as the sequence (P15056 whole entry) above, with V600E counted along it
Experimental: Inhibition of MLK1 and B-RAF at K M,ATP was determined in a radiometric assay using ^32P-labeled ATP at Eurofins Cerep SA (Celle-Lévescault, France).

With O=C(c1ccc(Oc2ccccc2)cc1Cl)c1c[nH]c2ncnc(N[C@@H]3CC[C@@H](CO)OC3)c12 [nemtabrutinib] as the molecule, how does the IC50 ([1]; Homo sapiens, KATO III, 72 h) read?
The IC50 was 1100 nM.

And the IC50 [1]?
Its IC50 is 1120 nM.

And the IC50 ([2]; Homo sapiens, KG-1, 72 h)?
Its IC50 is 1400 nM.

What about the IC50 [2] of the same molecule?
Its IC50 is 1410 nM.

And the IC50 [3]?
The IC50 was 3460 nM.

And the IC50 [4]?
Its IC50 is 4010 nM.

What about the IC50 [5] of the same molecule?
Its IC50 is 16300 nM.

And the IC50 [6]?
Its IC50 is 736 nM.

And the IC50 [7]?
Its IC50 is 3260 nM.

And the IC50 [8]?
The IC50 was 1290 nM.

And the IC50 [9]?
The IC50 was 17300 nM.

What about the IC50 [10] of the same molecule?
The IC50 was 1130 nM.

What about the IC50 [11] of the same molecule?
The IC50 was 486 nM.

And the IC50 [12]?
Its IC50 is 376 nM.

What about the IC50 [13] of the same molecule?
The IC50 was 4580 nM.

And the IC50 [14]?
The IC50 was 22300 nM.

What about the IC50 [15] of the same molecule?
The IC50 was 979 nM.

What about the IC50 [16] of the same molecule?
Its IC50 is 1740 nM.

What about the IC50 [17] of the same molecule?
Its IC50 is 5480 nM.

And the IC50 [18]?
The IC50 was 5730 nM.

What about the IC50 [19] of the same molecule?
The IC50 was 4780 nM.

What about the IC50 [20] of the same molecule?
Its IC50 is 7800 nM.

And the IC50 [21]?
Its IC50 is 2810 nM.

And the IC50 [22]?
Its IC50 is 9150 nM.

And the IC50 [23]?
Its IC50 is 4520 nM.

What about the IC50 [24] of the same molecule?
The IC50 was 7700 nM.

And the IC50 ([25]; 1 mmol/L ATP, read-out: IC50, MEK1)?
The IC50 was 456 nM.

What about the IC50 ([25]; IC50, MEK1) of the same molecule?
Its IC50 is ~9 nM.

What about the IC50 ([25]; K M,bin ATP (10 µmol/L ATP), read-out: IC50, MEK1) of the same molecule?
The IC50 was 8.5 nM and 8.46 nM.

What about the “log (kd)” value [26] of the same molecule?
Its value is -3.49.

What about the “log(ka)” value [26] of the same molecule?
Its value is 4.50.

What about the t1/2 [26] of the same molecule?
The t1/2 was 35.67 min.

And the “difference in affinity, MEK1 versus B-RAF” value ([27]; SPR K D B-RAF versus K D MEK1)?
The value was 120 fold.

What about the “log (kd)” value ([27]; SPR, B-RAF) of the same molecule?
The value was -1.26.

What about the “log(ka)” value ([27]; SPR, B-RAF) of the same molecule?
Its value is 4.66.

And the t1/2 ([27]; SPR, B-RAF)?
The t1/2 was 0.208 min.

And the IC50 [28]?
The IC50 was 220 nM.

— article PMC12586182 (Frontiers in Oncology, 2025)
